ChEMBL document CHEMBL3734731 (Medchemcomm, 2015)
pEC50, pIC50: −log10 of the molar value. Numbered stars: 1 amine (or outer) side, 2 acyl side, 3 side chain; on linkers, the order of the positions; unused ones are H or OH. Square brackets hold non-standard residues; d marks the D form. Peptide text beside a SMILES is read from it. NMeF = CN[C@@H](Cc1ccccc1)C(=O)O; Aad = N[C@@H](CCCC(=O)O)C(=O)O; Oxalyl = O=C(C(=O)[*:2])[*:1]

Assays:
Serum [1] = assay: Metabolic stability in cattle serum by HPLC analysis; format: ADME, Bos taurus
[2] = target: T1, Neuromedin-K receptor (Homo sapiens) (UniProt P29371); assay: Potency index, ratio of EC50 for […] to EC50 for test compound for agonist activity at human NK3 receptor
T1 sequence (whole entry): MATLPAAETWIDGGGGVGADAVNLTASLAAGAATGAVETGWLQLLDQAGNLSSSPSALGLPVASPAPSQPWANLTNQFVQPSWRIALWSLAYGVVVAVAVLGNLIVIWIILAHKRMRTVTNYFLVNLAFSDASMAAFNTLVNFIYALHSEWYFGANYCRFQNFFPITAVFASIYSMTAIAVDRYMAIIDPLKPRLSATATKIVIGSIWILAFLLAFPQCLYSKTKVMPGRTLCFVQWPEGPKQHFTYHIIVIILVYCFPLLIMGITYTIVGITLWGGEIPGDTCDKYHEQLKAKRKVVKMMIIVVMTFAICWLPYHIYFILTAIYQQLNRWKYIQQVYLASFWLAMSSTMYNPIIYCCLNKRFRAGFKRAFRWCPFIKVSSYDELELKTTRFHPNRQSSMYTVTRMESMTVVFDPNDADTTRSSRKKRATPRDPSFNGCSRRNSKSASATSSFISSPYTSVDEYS

[3] = Induction of periodic burst of multiple-unit activity volleys in OVX goat assessed as number of ligand-induced multiple-unit activity volleys at 200 nmol, iv; format: functional, Capra hircus
Neuromedin-K receptor [4] = target: T2, Neuromedin-K receptor (Rattus norvegicus, UniProt P16177); assay: Agonist activity at rat NK3 receptor expressed in CHO cells assessed as calcium influx relative to 100 nM senktide; format: functional, cell-based
T2 sequence (P16177 whole entry): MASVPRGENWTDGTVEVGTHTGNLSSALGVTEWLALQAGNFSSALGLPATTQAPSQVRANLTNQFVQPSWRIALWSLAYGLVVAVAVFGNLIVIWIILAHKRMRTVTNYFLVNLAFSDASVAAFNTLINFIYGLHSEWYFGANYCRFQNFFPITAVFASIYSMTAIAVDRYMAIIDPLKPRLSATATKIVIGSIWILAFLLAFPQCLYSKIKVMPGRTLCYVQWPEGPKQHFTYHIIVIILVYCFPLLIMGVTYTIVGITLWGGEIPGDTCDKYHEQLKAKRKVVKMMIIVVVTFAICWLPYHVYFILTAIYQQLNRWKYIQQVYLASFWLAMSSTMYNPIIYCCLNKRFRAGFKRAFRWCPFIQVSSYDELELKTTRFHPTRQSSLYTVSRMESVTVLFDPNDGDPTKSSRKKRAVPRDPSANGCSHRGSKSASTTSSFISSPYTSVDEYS

[5] = Metabolic stability in goat serum by HPLC analysis; format: ADME, Capra hircus
[6] = Agonist activity at cattle NK3 receptor expressed in CHO cells assessed as calcium influx relative to 100 nM senktide; format: cell-based
Neuromedin-K receptor [7] = target: T3, Neuromedin-K receptor (Homo sapiens, UniProt P29371); assay: Agonist activity at human NK3 receptor expressed in CHO cells assessed as calcium influx relative to 100 nM senktide; format: functional, cell-based
T3 sequence (P29371 whole entry): T1 sequence (whole entry)

[8] = Induction of periodic burst of multiple-unit activity volleys in OVX goat assessed as time duration of effect at 200 nmol, iv; format: functional, Capra hircus
Neuromedin-K receptor [9] = target: T3, Neuromedin-K receptor; assay: Displacement of ([125I]His3-MePhe7)-NKB from NK3 receptor (unknown origin) expressed in CHO cells by scintillation counter; format: cell-based
Substance-K receptor = target: T4, Substance-K receptor (Homo sapiens, UniProt P21452); assay: Displacement of [125I]-NKA from NK2 receptor (unknown origin) expressed in CHO cells by scintillation counter; format: cell-based
T4 sequence (P21452 whole entry): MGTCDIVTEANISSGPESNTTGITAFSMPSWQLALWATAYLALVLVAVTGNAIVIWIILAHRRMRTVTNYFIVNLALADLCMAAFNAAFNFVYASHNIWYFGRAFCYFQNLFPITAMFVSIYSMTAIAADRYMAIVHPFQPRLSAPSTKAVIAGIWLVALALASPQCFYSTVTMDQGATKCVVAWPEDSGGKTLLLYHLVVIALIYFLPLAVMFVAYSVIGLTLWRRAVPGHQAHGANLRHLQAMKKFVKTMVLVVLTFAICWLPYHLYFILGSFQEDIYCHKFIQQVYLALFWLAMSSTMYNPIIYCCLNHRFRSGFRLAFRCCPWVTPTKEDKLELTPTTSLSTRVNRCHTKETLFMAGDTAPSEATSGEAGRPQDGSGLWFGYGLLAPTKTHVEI

[10] = Agonist activity at goat NK3 receptor expressed in CHO cells assessed as calcium influx relative to 100 nM senktide; format: cell-based; details: Capra hircus
Serum [11] = assay: Metabolic stability in rat serum by HPLC analysis; format: ADME
Substance-P receptor = Substance-P receptor (Homo sapiens, UniProt P25103); assay: Displacement of [125I]-BH-SP from NK1 receptor (unknown origin) expressed in CHO cells by scintillation counter; format: cell-based
Chain of Substance-P receptor (P25103 whole entry): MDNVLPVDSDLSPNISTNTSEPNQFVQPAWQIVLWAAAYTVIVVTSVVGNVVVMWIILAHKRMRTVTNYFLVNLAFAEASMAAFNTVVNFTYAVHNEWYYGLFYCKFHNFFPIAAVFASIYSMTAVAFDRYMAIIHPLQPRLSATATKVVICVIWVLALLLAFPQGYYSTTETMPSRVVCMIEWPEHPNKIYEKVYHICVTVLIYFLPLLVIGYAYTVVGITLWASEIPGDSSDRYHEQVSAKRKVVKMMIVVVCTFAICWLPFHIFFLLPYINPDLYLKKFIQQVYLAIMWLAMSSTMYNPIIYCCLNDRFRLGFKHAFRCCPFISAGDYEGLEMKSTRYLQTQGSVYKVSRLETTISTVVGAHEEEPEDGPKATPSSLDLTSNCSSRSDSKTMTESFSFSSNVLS

Neprilysin (NEP 24.11) = Neprilysin (NEP 24.11) (Homo sapiens, UniProt P08473); assay: Stability of compound assessed as NEP 24.11 (unknown origin)-mediated drug degradation after 24 hrs by HPLC analysis; format: ADME; details: NEP 24.11 (neprilysin) enzyme
Chain of Neprilysin (NEP 24.11) (P08473 whole entry): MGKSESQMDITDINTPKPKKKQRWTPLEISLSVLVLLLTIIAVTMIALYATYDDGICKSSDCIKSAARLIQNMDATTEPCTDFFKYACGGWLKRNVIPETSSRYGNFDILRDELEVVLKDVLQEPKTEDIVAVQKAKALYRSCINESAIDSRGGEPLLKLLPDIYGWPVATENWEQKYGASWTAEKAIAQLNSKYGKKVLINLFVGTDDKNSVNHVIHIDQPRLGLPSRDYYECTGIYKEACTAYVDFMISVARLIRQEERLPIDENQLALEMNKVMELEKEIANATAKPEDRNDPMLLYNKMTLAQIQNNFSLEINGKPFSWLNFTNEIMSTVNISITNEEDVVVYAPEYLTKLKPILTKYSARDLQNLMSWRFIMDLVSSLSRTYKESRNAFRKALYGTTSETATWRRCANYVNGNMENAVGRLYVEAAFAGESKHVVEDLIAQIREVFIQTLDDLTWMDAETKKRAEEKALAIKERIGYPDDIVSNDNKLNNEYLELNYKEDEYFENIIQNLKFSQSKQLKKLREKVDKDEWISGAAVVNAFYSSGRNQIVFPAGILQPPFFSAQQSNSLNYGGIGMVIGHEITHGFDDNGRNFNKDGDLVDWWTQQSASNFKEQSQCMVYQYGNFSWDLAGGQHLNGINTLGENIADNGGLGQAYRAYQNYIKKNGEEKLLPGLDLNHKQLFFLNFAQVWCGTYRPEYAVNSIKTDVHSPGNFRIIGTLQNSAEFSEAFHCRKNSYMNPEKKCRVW

Stability (Serum [1]) | Ratio EC50 [2] | pEC50 (Neuromedin-K receptor [4]) | Stability [5] | pEC50 [6] | pEC50 (Neuromedin-K receptor [7]) | pIC50 (Neuromedin-K receptor [9]) | pIC50 (Substance-K receptor) | pEC50 [10] | Stability (Serum [11]) | pIC50 (Substance-P receptor) | metabolised at 24 h (Neprilysin (NEP 24.11)) | Structure (SMILES) | Activity [3] | Time [8]
Stable | 7 | 11.00 | Stable | 9.82 | 10.85 | 9.29 | < 5.00 | 11.03 | Stable | < 5.00 |  | CSCC[C@H](NC(=O)[C@H](CC(C)C)NC(=O)CNC(=O)[C@H](Cc1ccccc1)N(C)C(=O)[C@H](Cc1ccccc1)NC(=O)[C@@H](CCC(=O)O)NC(=O)C(=O)O)C(N)=O | 2.7 | 50.4 min
 |  | 11.14 |  | 9.82 | 11.13 | 8.85 | < 5.00 | 11.03 |  | < 5.00 | > 70% | CSCC[C@H](NC(=O)[C@H](CC(C)C)NC(=O)CNC(=O)[C@H](Cc1ccccc1)N(C)C(=O)[C@H](Cc1ccccc1)NC(=O)[C@H](CCCC(=O)O)NC(=O)C(=O)O)C(N)=O (Oxalyl-[Aad]F[NMeF]GLM-NH2) |  | 
Stable |  |  | Stable | 9.21 |  |  | < 5.00 | 10.72 | Stable |  |  | CSCC[C@H](NC(=O)[C@H](CC(C)C)NC(=O)CNC(=O)[C@H](Cc1ccccc1)N(C)C(=O)[C@H](Cc1ccccc1)NC(=O)[C@H](CC(=O)O)NC(=O)CCC(=O)O)C(N)=O [SENKTIDE] | 2.6 | 47.2 min
Stable | 7 | 10.89 | Stable | 9.77 | 11.04 | 9.37 | < 5.00 | 10.92 | Stable | < 5.00 | > 70% | CSCC[C@H](NC(=O)[C@H](CC(C)C)NC(=O)CNC(=O)[C@H](Cc1ccccc1)N(C)C(=O)[C@H](Cc1ccccc1)NC(=O)[C@H](CCC(=O)O)NC(=O)C(=O)O)C(N)=O |  | 
